Several values for one entry are separate records, joined by “and”; a condition that tells them apart may be missing. Equal values may be shown once. Read-outs that look alike come from different tables or passages of the source.
How the values were obtained:
[1] = system: intracellular T. cruzi amastigotes; experiment: Rate of kill, intracellular T. cruzi amastigotes (CPRG, 96-well); type: cell-based, Trypanosoma cruzi; conditions: for EC90/EC50 / Hill slope / EC50: Amastigotes; for Growth inhibition (%), individual replicates / inhibition at 50 µM: T. cruzi amastigotes, 50 µM; for inhibition at 50 µM / EC50: Trypanosoma cruzi
Procedure: For rate of kill experiments, in vitro activity against intracellular T. cruzi amastigotes was analyzed at early time points: 24, 48 and 72 hours. The standard colorimetric transgenic assay was established in a 96-well format, with serial dilutions of compounds and 0.05% as the final maximal DMSO percentage per well. In these experiments L6 host cells were included as negative controls and CPRG conversion was monitored at 585 nm using a Versamax microplate reader (Molecular devices).

[2] = system: T. cruzi epimastigotes; experiment: FACS analysis of T. cruzi epimastigotes (cell cycle, size and complexity); type: cell-based, Trypanosoma cruzi; conditions: for % Cells G1, Average / % Cells G2/M, Average / % Cells S, Average / % Cells sub-G1, Average / % Cells G1, individual replicates / % Cells G2/M, individual replicates / % Cells S, individual replicates / % Cells post G2/M, individual replicates / % Cells sub-G1, individual replicates: 72-hour drug exposure, FACS with PI staining; for Foward Scatter (FSC) - Geometric Mean, single experiment / Foward Scatter (FSC) - Geometric Mean, Average / size reduction with respect to untreated parasites: 72 h
Procedure: FACS analysis was used to study cell cycle progression and cellular parameters such as size and complexity. 5 × 10^6 T. cruzi epimastigotes were harvested by centrifugation at 1,000×g and 4°C after 72 hours of incubation in a 6-well plate in the presence and in absence of test compounds. Pellets of cells were washed with 5 mL of PBS and fixed in a solution of 70% ice-cold ethanol/PBS at -20°C overnight. Cells were then collected by centrifugation, washed with PBS and stained with 40 μg/mL of propidium iodide in PBS containing 10 μg/mL of RNase A at 37°C for 30 minutes. Fluorescence was monitored with a Becton Dickinson FACSCalibur using BD CellQuest Pro version 4.0.2 software with a total of 10,000 events acquired for each sample. The different cell populations as well as mean cellular parameters were determined by FlowJo software.

[3] = system: transgenic Trypanosoma cruzi Brazil strain expressing firefly luciferase; experiment: In vivo efficacy, acute T. cruzi infection in BALB/c mice (luciferase imaging)
Procedure: In vivo experiments were performed at the Anti-infectives Screening Core Services facility of the New York University School of Medicine. The transgenic Trypanosoma cruzi Brazil strain expressing firefly luciferase was used. Groups of five female BALB/c mice were infected with 2 × 10^6 T. cruzi trypomastigotes. […] Quantification is based on luciferase activity of the parasites after i.p. injection of 150 mg/Kg D-luciferin potassium-salt in PBS. Luminescence is measured on the fifth day using an IVIS Lumina II imager.

[4] = parameters: method as in PMID 34865639; conditions: cited from earlier work
[5] = system: Plasmodium berghei; parameters: method as in PMID 34865639; conditions: Plasmodium berghei murine model; cited from earlier work

C/C1=C\[C@H](C)C(=O)C[C@@H](O)/C(C)=C/[C@H](C)C[C@@H](C)CC[C@@H]([C@@H](C)C(=O)O)OC(=O)[C@@H](C)C1 [Strasseriolide C, strasseriolide C]
EC90/EC50 ([1]; 48 h): 2.65
Hill slope ([1]; 48 h): 2.31
EC90/EC50 ([1]; 72 h): 2.43
Hill slope ([1]; 72 h): 2.48
Growth inhibition (%), individual replicates ([1]; 24 h, single replicates): 74.7423%
Growth inhibition (%), individual replicates ([1]; 48 h, single replicates): 94.7649% and 95.5652%
Growth inhibition (%), individual replicates ([1]; 72 h, single replicates): 98.6747% and 99.1566%
inhibition at 50 µM ([1]; 24 h, 24 h, average, read-out: Growth inhibition (%), Average): 73.4%
inhibition at 50 µM ([1]; 24 h, 24 h, single replicates, read-out: Growth inhibition (%), individual replicates): 72.7%
inhibition at 50 µM ([1]; 48 h, 48 h, average, read-out: Growth inhibition (%), Average): 94.9%
inhibition at 50 µM ([1]; 48 h, 48 h, single replicates, read-out: Growth inhibition (%), individual replicates): 94.2%
inhibition at 50 µM ([1]; 72 h, 72 h, average, read-out: Growth inhibition (%), Average): 98.8%
inhibition at 50 µM ([1]; 72 h, 72 h, single replicates, read-out: Growth inhibition (%), individual replicates): 98.6%
EC50 ([1]; 24 h): 10.3 µM
EC50 ([1]; 48 h): 5.25 µM
EC50 ([1]; 72 h): 5.3 µM
% Cells G1, Average ([2]; EC30, average): 50.2633%
% Cells G2/M, Average ([2]; EC30, average): 31.3463%
% Cells S, Average ([2]; EC30, average): 16.5971%
% Cells sub-G1, Average ([2]; EC30, average): 3.151%
% Cells G1, individual replicates ([2]; EC30, single replicates): 52.1473% and 48.3792%
% Cells G2/M, individual replicates ([2]; EC30, single replicates): 31.009% and 31.6835%
% Cells S, individual replicates ([2]; EC30, single replicates): 14.5117% and 18.6825%
% Cells post G2/M, individual replicates ([2]; EC30, single replicates): -0.5484% and -2.167%
% Cells sub-G1, individual replicates ([2]; EC30, single replicates): 2.8804% and 3.422%
% Cells G1, Average ([2]; EC70, average): 52.4319%
% Cells G2/M, Average ([2]; EC70, average): 31.1794%
% Cells S, Average ([2]; EC70, average): 14.7538%
% Cells sub-G1, Average ([2]; EC70, average): 3.07%
% Cells G1, individual replicates ([2]; EC70, single replicates): 54.5779% and 50.2858%
% Cells G2/M, individual replicates ([2]; EC70, single replicates): 30.5655% and 31.7933%
% Cells S, individual replicates ([2]; EC70, single replicates): 10.63% and 18.8776%
% Cells post G2/M, individual replicates ([2]; EC70, single replicates): -0.9732% and -1.896%
% Cells sub-G1, individual replicates ([2]; EC70, single replicates): 5.2% and 0.9392%
Foward Scatter (FSC) - Geometric Mean, single experiment ([2]; EC30): 81.2 and 80.4
Foward Scatter (FSC) - Geometric Mean, Average ([2]; EC30, control 96.65): 80.8
Foward Scatter (FSC) - Geometric Mean, single experiment ([2]; EC70): 72.5 and 74.3
Foward Scatter (FSC) - Geometric Mean, Average ([2]; EC70, control 96.65): 73.4
size reduction with respect to untreated parasites ([2]; at EC30): 16%
size reduction with respect to untreated parasites ([2]; at EC70): 22%
Total counts, individual mouse ([3]; 50 mg/kg i.p. 5 days from 72 h post-infection, 50 mg/kg): 1820000 and 5150000 and 2580000 and 6540000 and 3640000
Total counts, Average ([3]; 50 mg/kg i.p. 5 days from 72 h post-infection, vehicle average 8050000): 3940000
parasitaemia in vivo ([3]; acute infection model, 50 mg/Kg i.p., 5 days): lowers parasitaemia
liver microsome clearance [4]: medium
in vivo antiprotozoal activity [5]: exhibit in vivo antiprotozoal activity

Reference: publication PMC10529594, “Strasseriolides display in vitro and in vivo activity against trypanosomal parasites and cause morphological and size defects in Trypanosoma cruzi” (PLOS Neglected Tropical Diseases, 2023)
